Source: US7265227B2, “Piperidine derivatives useful as modulators of chemokine receptor activity” (AstraZeneca AB, priority 2001, dated 2007)

Experiments:
[1] = tested on: eotaxin mediated human eosinophil chemotaxis; test: Human eosinophil chemotaxis; format: cell-based; conditions: human eosinophils from peripheral blood; eotaxin 0.1 to 100 nM; 1 hr at 37° C.
Experimental: Human Eosinophil Chemotaxis
Human eosinophils were isolated from EDTA anticoagulated peripheral blood as previously described (Hansel et al., J. Immunol. Methods, 1991, 145, 105-110). The cells were resuspended at 10×10^6 ml^−1 in RPMI containing 200 IU/ml penicillin, 200 μg/ml streptomycin sulfate and supplemented with 10% HIFCS, at room temperature.
Eosinophils (700 μl) were pre-incubated for 15 mins at 37° C. with 7 μl of either vehicle or compound (100× required final concentration in 10% DMSO). The chemotaxis plate (ChemoTx, 3μ, pore, Neuroprobe) was loaded by adding 28 μl of a concentration of eotaxin (0.1 to 100 nM) containing a concentration of a compound according to the Examples or solvent to the lower wells of the chemotaxis plate. The filter was then placed over the wells and 25 μl of eosinophil suspension were added to the top of the filter. The plate was incubated for 1 hr at 37° C. in a humidified incubator with a 95% air/5% CO2 atmosphere to allow chemotaxis.
The medium, containing cells that had not migrated, was carefully aspirated from above the filter and discarded. The filter was washed once with phosphate buffered saline (PBS) containing 5 mM EDTA to remove any adherent cells. […] The number of eosinophils migrating was quantified according to the method of Strath et al., J. Immunol. […]

H1 = biological target: T1, H1 (Cavia porcellus, UniProt P31389); test: Guinea-pig isolated trachea (histamine concentration effect curves); conditions: guinea-pig tracheal rings; histamine E/[A] curve after 60 minutes incubation with test compound
T1 construct: the trachea was cut into six ring segments each three cartilage bands wide and then suspended in 20 ml organ baths; from tissue; host or cells: guinea-pig isolated trachea (Dunkin-Hartley)
Experimental: Guinea-pig Isolated Trachea
(See for example, Harrison, R. W. S., Carswell, H. & Young, J. M. (1984) European J. Pharmacol., 106, 405-409.)
Male albino Dunkin-Hartley guinea-pigs (250 g) were killed by cervical dislocation and the whole trachea removed. After clearing the adherent connective tissue, the trachea was cut into six ring segments each three cartilage bands wide and then suspended in 20 ml organ baths containing Krebs-Henseleit solution of the following composition (MM): NaCl 117.6, NaH2PO4 0.9, NaHCO3 25.0, MgSO4 1.2, KCl 5.4, CaCl2 2.6 and glucose 11.1. The buffer was maintained at 37° C. and gassed with 5% CO2 in oxygen. Indomethacin (2.8 μM) was added to the Krebs solution to prevent development of smooth muscle tone due to the synthesis of cyclo-oxygenase products. […] Changes in isometric force were recorded on 2-channel Sekonic flat bed chart recorders. […]
Contraction responses were recorded as a percentage of the first curve maximum. […]
Experimental E/[A] curve data were analysed for the purposes of estimating the potencies (p[A50] values) of histamine in the absence and presence of the test compound. Affinity (pA2) values of test compounds were subsequently calculated using the following equation: log(r−1)=log[B]+pA2 where r=[A]50 in presence of test compound/[A]50 in absence of antagonist and [B] is the concentration of test compound.

T1 sequence (P31389 whole entry): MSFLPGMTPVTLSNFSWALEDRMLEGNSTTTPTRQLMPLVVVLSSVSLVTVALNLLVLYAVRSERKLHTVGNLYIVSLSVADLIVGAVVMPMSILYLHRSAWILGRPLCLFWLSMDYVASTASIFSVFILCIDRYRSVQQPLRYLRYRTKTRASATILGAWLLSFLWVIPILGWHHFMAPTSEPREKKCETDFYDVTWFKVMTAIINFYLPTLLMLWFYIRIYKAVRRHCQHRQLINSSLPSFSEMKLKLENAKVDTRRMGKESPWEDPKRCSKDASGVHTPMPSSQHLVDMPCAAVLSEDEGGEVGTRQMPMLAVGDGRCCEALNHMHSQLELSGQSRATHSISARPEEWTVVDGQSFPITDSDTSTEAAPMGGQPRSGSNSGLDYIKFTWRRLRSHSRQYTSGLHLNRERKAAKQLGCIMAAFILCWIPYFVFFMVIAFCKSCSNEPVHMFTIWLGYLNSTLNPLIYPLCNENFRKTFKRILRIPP

melting point [°C]	H1 antagonism (H1)	Structure (SMILES)	antagonism of the eotaxin mediated human eosinophil chemotaxis [1]
237 to 239		O=C(NS(=O)(=O)CCN1CCC(Oc2ccc(Cl)c(Cl)c2)CC1)c1ccccc1Cl [Example 19, N-(2-Chlorobenzoyl)-4-(3,4-dichlorophenoxy)-1-piperidineethanesulfonamide]	
177 to 179		Cc1ccc(S(=O)(=O)NC(=O)CCN2CCC(Oc3ccc(Cl)c(Cl)c3)CC2)cc1 [Example 20, N-[3-[4-(3,4-dichlorophenoxy)-1-piperidinyl]-1-oxopropyl]4-methyl-benzenesulfonamide]	
93 to 106		O=C(NS(=O)(=O)NCCCN1CCC(Oc2ccc(Cl)c(Cl)c2)CC1)c1ccccc1 [Example 18, N-benzoyl-N′-[3-[4-(3,4-dichlorophenoxy)-1-piperidinyl]propyl]-sulfamide]	
179.6 to 180.3	H1 antagonist	Cc1ccc(S(=O)(=O)NC(=O)NCCN2CCC(Oc3ccc(Cl)c(Cl)c3)CC2)cc1 [Example 1, N-[[[2-[4-(3,4-dichlorophenoxy)-1-piperidinyl]ethyl]amino]carbonyl]-4-methyl-benzenesulfonamide]	antagonist
